Data published in patent US9890126B2 (priority 2012, dated 2018).
Where two headings read alike, the source gives them in different places. Marks after values point to notes of the source that are not given here.

Experiments:
IspF = IspF (Burkholderia pseudomallei, UniProt Q3JRA0); assay: biochemical; assay type: binding
[1] = relative to DMSO control, 0.00 = growth with inhibitor equal to or greater than DMSO control
Throughout, for % Growth Inhibition Endpoint (24 h): test concentration or dose not given here.
Throughout, for % Growth Inhibition Growth Curve: test concentration or dose not given here.

Sequence of IspF (Q3JRA0 whole entry, looked up): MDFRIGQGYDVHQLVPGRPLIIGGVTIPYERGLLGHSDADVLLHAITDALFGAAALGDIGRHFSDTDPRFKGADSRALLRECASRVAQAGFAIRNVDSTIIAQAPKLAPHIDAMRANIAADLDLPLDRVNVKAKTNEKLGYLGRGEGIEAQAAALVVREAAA

CCOC(=O)c1cnc(Nc2ccc3cn[nH]c3c2)[nH]c1=O [HGN-0040, Ethyl 2-((1H-indazol-6-yl)amino)-6-oxo-1,6-dihydropyrimidine-5-carboxylate]
Kd (IspF; pH 7.4): no binding | % Growth Inhibition Endpoint (24 h) (Burkholderia; [1]): 16.39 ± 6.29%

CCOC(=O)c1cnc(Nc2ccc3[nH]ncc3c2)[nH]c1=O [HGN-0042, Ethyl 2-((1H-indazol-5-yl)amino)-6-oxo-1,6-dihydropyrimidine-5-carboxylate]
Kd (IspF; pH 7.4): not soluble | % Growth Inhibition Endpoint (24 h) (Burkholderia; [1]): 20.70 ± 0.71%

Cn1ccnc1C(O)Cc1ccccc1 (stereo not drawn) [HGN-0061]
Kd (IspF; pH 7.4): no binding

OC(Cn1cnc(-c2ccccc2)c1-c1ccccc1)c1ccccc1 (stereo not drawn) [HGN-0060]
Kd (IspF; pH 7.4): not soluble

O=C([O-])c1cnc(Nc2ccc3cn[nH]c3c2)nc1[O-].[Na+].[Na+] [HGN-0045, Sodium 2-((1H-indazol-6-yl)amino)-4-oxoidopyrimidine-5-carboxylate]
Kd (IspF; pH 7.4): non specific | % Growth Inhibition Endpoint (24 h) (Burkholderia; [1]): 0.00^b %

Oc1ccc(-c2cncn2CCc2c[nH]c3ccccc23)cc1 [HGN-0020]
Kd (IspF): 204 µM | % Growth Inhibition Growth Curve (Burkholderia; [1]): 1.26 ± 2.33%

Oc1ccc(-c2cncn2Cc2ccco2)cc1 [HGN-0019]
Kd (IspF): 380 µM

CCOC(=O)c1cnc(Nc2cccc(-c3ccccc3)c2)[nH]c1=O [HGN-0039]
Kd (IspF; pH 7.4): non specific | % Growth Inhibition Endpoint (24 h) (Burkholderia; [1]): 0.00^b %

Oc1ccc(CCn2cncc2-c2ccc(O)cc2)cc1 [HGN-0048]
Kd (IspF): 486 µM

Nc1ccn([C@@H]2O[C@H](CNC(=O)c3ccncc3)[C@@H](O)[C@H]2O)c(=O)n1 [HGN-0005]
Kd (IspF): 176 µM | % Growth Inhibition Growth Curve (Burkholderia; [1]): 0.00^b %

CCOC(=O)c1cnc(Nc2ccc(CC(=O)O)cc2)[nH]c1=O [HGN-0041, 2-(4-((5-(ethoxycaronyl)-6-oxo-1,6-dihydropyrimidin-2-yl)amino)phenyl)acetic acid]
Kd (IspF; pH 7.4): not soluble | % Growth Inhibition Endpoint (24 h) (Burkholderia; [1]): 0.00^b %

Oc1ccc(-n2ccnc2)cc1 [HGN-0056]
Kd (IspF; pH 7.4): no binding

O=C([O-])c1cnc(Nc2ccc(-c3ccncc3)cc2)nc1[O-].[Na+].[Na+] [HGN-0013]
Kd (IspF; pH 7.4): non-specific | % Growth Inhibition Growth Curve (Burkholderia; [1]): 6.26 ± 1.00%

O=C([O-])c1cnc(Nc2ccc3[nH]ncc3c2)nc1[O-].[Na+].[Na+] [HGN-0046, Sodium 2-((1H-indazol-5-yl)amino)-4-oxoidopyrimidine-5-carboxylate]
Kd (IspF; pH 7.4): non specific | % Growth Inhibition Endpoint (24 h) (Burkholderia; [1]): 15.12 ± 4.25%

CC(C)n1cncc1-c1ccc(O)cc1 [HGN-0018]
Kd (IspF; pH 7.4): no binding

CCOC(=O)c1cnc(NCCc2ccc(Cl)cc2)[nH]c1=O [HGN-0038, Ethyl 2-((4-chlorophenethyl)amino)-6-oxo-1,6-dihydropyrimidine-5-carboxylate]
Kd (IspF; pH 7.4): not soluble | % Growth Inhibition Endpoint (24 h) (Burkholderia; [1]): 0.00^b %

O=C(O)c1cnc(Nc2ccc(-c3ccccc3)cc2)[nH]c1=O [HGN-0035, 2-((1,1′-biphenyl)-4-ylamino)-6-oxo-1,6-dihydropyrimidine-5-carboxylic acid]
Kd (IspF; pH 7.4): not soluble | % Growth Inhibition Endpoint (24 h) (Burkholderia; [1]): 91.14 ± 1.18%

NC(=O)c1c[nH]nc1NC(=O)c1c[nH]c2ncccc12 [HGN-0002]
Kd (IspF; pH 7.4): not soluble

Oc1ccc(-c2cncn2CCc2ccccc2)cc1 [HGN-0052]
Kd (IspF; pH 7.4): no binding

O=C([O-])c1cnc(NCc2ccccc2F)nc1[O-].[Na+].[Na+] [HGN-0134]
% Growth Inhibition Endpoint (24 h) (Burkholderia; [1]): 26.05 ± 6.37%

CC(c1ccccc1)C(O)c1nccn1-c1ccccc1 (stereo not drawn) [HGN-0062]
Kd (IspF; pH 7.4): no binding

O=C([O-])c1cnc(NCc2ccc(F)cc2)nc1[O-].[Na+].[Na+] [HGN-0114]
% Growth Inhibition Endpoint (24 h) (Burkholderia; [1]): 5.94 ± 5.46%

Oc1ccc(-c2cncn2CCc2ccc(Cl)c(Cl)c2)cc1 [HGN-0100]
% Growth Inhibition Endpoint (24 h) (Burkholderia; cells printing symbol L): L^c

Oc1ccc(-c2cncn2CCc2c(Cl)cccc2Cl)cc1 [HGN0098]
% Growth Inhibition Endpoint (24 h) (Burkholderia; [1]): 0.00^b %

CCOC(=O)c1cnc(NCc2ccc(Cl)cc2)[nH]c1=O [HGN-0125]
% Growth Inhibition Endpoint (24 h) (Burkholderia; [1]): 23.89 ± 36.14%
